Like-named read-outs stand apart in the source and are kept apart here.
Legend:
[1] = system: LPS in E. coli culture supernatant (E. coli NIHJ JC-2 strain); assay: Inhibitory effect on LPS in E. coli culture supernatant; format: cell-based; settings: 24 hr; for inhibitory effect of compound on LPS in E. coli culture supernatant, relative ratio: relative ratio to the inhibitory ratio of the compound of Example 1 as 1.0, compound 100 μM
Protocol: One platinum loop of E. coli NIHJ JC-2 strain was inoculated into a test tube containing heart infusion broth (HIB, 5 mL) and cultured for about 24 hr. The bacterial culture broth was washed three times by centrifugation (3000 rpm, 15 min, 20° C., TOMY Seiko, RL-131) using 10 mL of fresh HIB medium for one cycle of washing. The washed bacteria were prepared to an about 10^7 colony forming unit (CFU)/mL with a fresh HIB medium, and 0.2 mL of the prepared bacterial suspension was inoculated into an Erlenmeyer flask containing a fresh HIB medium (18.8 mL) (i.e., to final bacterial concentration of about 10^5 CFU/mL). A solution (1 mL) of each compound prepared to a concentration of 2 mM (final concentration of compound 100 μM) was added to the culture broth containing the bacteria. Using a shaker (RGR-1 type, manufactured by IWASHIYA, Ltd.), shake culture was conducted at 37° C., and 2 mL of culture broth after 24 hr was sampled. The sampled culture broth was filtered (DISMIC, 0.45 μm, Advantech Toyo) and diluted 10^5-fold with sterile distilled water. The resulting suspension (200 μL) was added to a limulus reagent (LAL ES, Wako Pure Chemical Industries) and LPS concentration was measured using Toxinometer MT-285 (Wako Pure Chemical Industries) preheated to 37° C.
The LPS inhibitory ratio of the compound was calculated as a ratio of the LPS concentration of the compound addition group relative to the LPS concentration of the compound non-addition group. […] The inhibitory ratio of each compound is shown in the following in Table 1 as a relative ratio to the inhibitory ratio of the compound of Example 1 as 1.0.

[2] = system: LPS in rat peritonitis (CLP; cecal ligation and puncture) model; assay: Inhibitory effect on LPS that increases in rat peritonitis (CLP) model; format: in vivo; settings: iv, continuous tail vein infusion 2.5 mg/kg/hr
Protocol: Rat peritonitis (CLP; cecal ligation and puncture) model was prepared according to the method of Wichterman et al. (J. Surg. Res. 29, 189-201 <1980>). That is, a rat fasted overnight was anesthetized with ether, and a midline laparotomy was performed and the cecum was exposed. The cecum was ligated with a 3-0 silk thread at its base and perforated two times with an 18 G injection needle. The cecum was gently squeezed to extrude feces, which were spread around the abdomen, and the sectioned part was sutured. The animal was fixed in a Borrmann cage, and physiological saline or drug solution ([…]) was continuously given from the tail vein at an administration rate of 2.5 mg/kg/hr with an infusion pump (22 M, Harvard, 5 mL/kg/hr as a dose).
After 6 hr of the CLP treatment, the animal was sacrificed with carbonic acid gas. The abdominal cavity was washed by injecting phosphate buffered saline (PBS; 37° C., 10 mL) and the abdominal cavity washing containing ascites (PLF; peritoneal lavage fluid) was recovered. The recovery weight of the obtained PLF was measured, and PLF was centrifuged (1500 rpm for 5 min, 4° C.) to recover supernatant. The blood taken from the heart was centrifuged (3000 rpm for 10 min, 4° C.) using a serum separation tube, and the serum was recovered. The concentration of LPS in the abdominal cavity and serum was measured using Toxinometer MT-285 (Waco Pure Chemical Industries) preheated to 37° C., after diluting the supernatant and serum of the recovered PLF 10^5-fold and 10^2-fold, respectively, with sterile distilled water, and adding 200 μL thereof to a limulus reagent (LAL ES, Waco Pure Chemical Industries). The amount of LPS per abdominal cavity was calculated from amount of recovered abdominal cavity washing (PLF)×LPS concentration of PLF.
The LPS inhibitory ratio of the compound was calculated as the ratio of LPS concentration of the compound administration group to LPS concentration of the physiological saline administration group.

[3] = peritoneal lavage fluid 6 hr after CLP, read-out: LPS inhibitory ratio (%) in abdominal cavity
[4] = serum 6 hr after CLP, read-out: LPS inhibitory ratio (%) in blood

With `CNC(=O)[C@H](Cc1ccc(OCCCS(=O)(=O)[O-])cc1)NC(=O)[C@H](CC(C)C)C(CN1C(=O)c2ccccc2C1=O)C(=O)NO.[Na+]` (single isomer, unassigned) [Example 1, 5-methyl-3(R)-{1(S)-methylcarbamoyl-2-[4-(3-sulfopropoxy)phenyl]ethylcarbamoyl}-2(R or S)-phthalimidomethylhexanohydroxamic acid sodium salt] the LPS inhibitory ratio ([1]; final concentration of compound 100 μM, shake culture 37° C., limulus reagent) was 46.5-65.8%, the “inhibitory effect of compound on LPS in E. coli culture supernatant, relative ratio” value (from here on “inhibitory effect of compound … relative ratio”) ([1]; sodium salt) was 1.0 and the inhibition in vivo at 2.5 mg/kg/h [2, 3] was 88.3%. For the same compound, the inhibition in vivo at 2.5 mg/kg/h [2, 4] was 79.9%.
For `CNC(=O)[C@@H](Cc1ccc(OCCCS(=O)(=O)[O-])cc1)NC(=O)[C@H](CC(C)C)C(CN1C(=O)c2ccccc2C1=O)C(=O)NO.[Na+]` (single isomer, unassigned) [Example 3, 5-methyl-3(R)-{1(R)-methylcarbamoyl-2-[4-(3-sulfopropoxy)phenyl]ethylcarbamoyl}-2(R or S)-phthalimidomethylhexanohydroxamic acid sodium salt], the “inhibitory effect of compound … relative ratio” value ([1]; sodium salt) was 0.70.
With `CNC(=O)[C@H](Cc1ccc(OCCCS(=O)(=O)[O-])cc1)NC(=O)[C@H](CC(C)C)C(CN1C(=O)c2ccccc2C1=O)C(=O)NO.[Na+]` (single isomer, unassigned) [Example 4, 5-methyl-3(R)-{1(S)-methylcarbamoyl-2-[4-(3-sulfopropoxy)phenyl]ethylcarbamoyl}-2(R or S)-phthalimidomethylhexanohydroxamic acid sodium salt] the “inhibitory effect of compound … relative ratio” value ([1]; sodium salt) was 0.69.
With `CNC(=O)[C@@H](Cc1ccc(OCCCS(=O)(=O)[O-])cc1)NC(=O)[C@H](CC(C)C)C(CN1C(=O)c2ccccc2C1=O)C(=O)NO.[Na+]` (single isomer, unassigned) [Example 5, 5-methyl-3(R)-{1(R)-methylcarbamoyl-2-[4-(3-sulfopropoxy)phenyl]ethylcarbamoyl}-2(R or S)-phthalimidomethylhexanohydroxamic acid sodium salt] the “inhibitory effect of compound … relative ratio” value ([1]; sodium salt) was 0.80.
In the case of `CNC(=O)[C@@H](Cc1ccc(OCCCS(=O)(=O)[O-])cc1)NC(=O)[C@@H](CC(C)C)C(CN1C(=O)c2ccccc2C1=O)C(=O)NO.[Na+]` (single isomer, unassigned) [Example 6, 5-methyl-3(S)-{1(R)-methylcarbamoyl-2-[4-(3-sulfopropoxy)phenyl]ethylcarbamoyl}-2(R or S)-phthalimidomethylhexanohydroxamic acid sodium salt], the “inhibitory effect of compound … relative ratio” value ([1]; sodium salt) is reported as 0.69.
`CNC(=O)[C@H](Cc1ccc(OCCCS(=O)(=O)[O-])cc1)NC(=O)[C@@H](CC(C)C)C(CN1C(=O)c2ccccc2C1=O)C(=O)NO.[Na+]` (single isomer, unassigned) [Example 7, 5-methyl-3(S)-{1(S)-methylcarbamoyl-2-[4-(3-sulfopropoxy)phenyl]ethylcarbamoyl}-2(R or S)-phthalimidomethylhexanohydroxamic acid sodium salt] was tested, and the “inhibitory effect of compound … relative ratio” value ([1]; sodium salt) was 0.79.
`CNC(=O)[C@@H](Cc1ccc(OCCCS(=O)(=O)[O-])cc1)NC(=O)[C@@H](CC(C)C)C(CN1C(=O)c2ccccc2C1=O)C(=O)NO.[Na+]` (single isomer, unassigned) [Example 8, 5-methyl-3(S)-{1(R)-methylcarbamoyl-2-[4-(3-sulfopropoxy)phenyl]ethylcarbamoyl}-2(R or S)-phthalimidomethylhexanohydroxamic acid sodium salt] was tested, and the “inhibitory effect of compound … relative ratio” value ([1]; sodium salt) was 0.60.
With `CNC(=O)[C@H](Cc1ccc(OCCCS(=O)(=O)[O-])cc1)NC(=O)[C@@H](CC(C)C)C(CN1C(=O)c2ccccc2C1=O)C(=O)NO.[Na+]` (single isomer, unassigned) [Example 9, 5-methyl-3(S)-{1(S)-methylcarbamoyl-2-[4-(3-sulfopropoxy)phenyl]ethylcarbamoyl}-2(R or S)-phthalimidomethylhexanohydroxamic acid sodium salt] the “inhibitory effect of compound … relative ratio” value ([1]; sodium salt) was 0.51.
In the case of `CNC(=O)[C@H](Cc1ccc(OCCS(=O)(=O)[O-])cc1)NC(=O)[C@H](CC(C)C)C(CN1C(=O)c2ccccc2C1=O)C(=O)NO.[Na+]` (single isomer, unassigned) [Example 10, 5-methyl-3(R)-{1(S)-methylcarbamoyl-2-[4-(2-sulfoethoxy)phenyl]ethylcarbamoyl}-2(R or S)-phthalimidomethylhexanohydroxamic acid sodium salt], the “inhibitory effect of compound … relative ratio” value [1] is reported as 0.87, the inhibition in vivo at 2.5 mg/kg/h [2, 3] is reported as 88.1% and the inhibition in vivo at 2.5 mg/kg/h [2, 4] is reported as 81.4%.
`CNC(=O)[C@H](Cc1ccc(OCCCCS(=O)(=O)[O-])cc1)NC(=O)[C@H](CC(C)C)C(CN1C(=O)c2ccccc2C1=O)C(=O)NO.[Na+]` (single isomer, unassigned) [Example 11, 5-methyl-3(R)-{1(S)-methylcarbamoyl-2-[4-(4-sulfobutoxy)phenyl]ethylcarbamoyl}-2(R or S)-phthalimidomethylhexanohydroxamic acid sodium salt] was tested, and the “inhibitory effect of compound … relative ratio” value [1] was 0.74, the inhibition in vivo at 2.5 mg/kg/h [2, 3] was 5.5% and the inhibition in vivo at 2.5 mg/kg/h [2, 4] was 36.2%.
With `CNC(=O)[C@H](Cc1ccc(OCCCCCS(=O)(=O)[O-])cc1)NC(=O)[C@H](CC(C)C)C(CN1C(=O)c2ccccc2C1=O)C(=O)NO.[Na+]` (single isomer, unassigned) [Example 12, 5-methyl-3(R)-{1(S)-methylcarbamoyl-2-[4-(5-sulfopentoxy)phenyl]ethylcarbamoyl}-2(R or S)-phthalimidomethylhexanohydroxamic acid sodium salt] the “inhibitory effect of compound … relative ratio” value [1] was 0.85.
For `CNC(=O)[C@H](Cc1ccc(OCCCS(=O)(=O)[O-])cc1)NC(=O)[C@H](CC(C)C)C(Cc1ccc2ccccc2c1)C(=O)NO.[Na+]` (single isomer, unassigned) [Example 13, 5-methyl-3(R)-{1(S)-methylcarbamoyl-2-[4-(3-sulfopropoxy)phenyl]ethylcarbamoyl}-2(R or S)-(2-naphthylmethyl)hexanohydroxamic acid sodium salt], the “inhibitory effect of compound … relative ratio” value [1] was 0.87, the inhibition in vivo at 2.5 mg/kg/h [2, 3] was 44.7% and the inhibition in vivo at 2.5 mg/kg/h [2, 4] was 74.2%.
With `CC(C)C[C@@H](C(=O)N[C@@H](Cc1ccccc1)C(=O)NCS(=O)(=O)[O-])C(Cc1ccc2ccccc2c1)C(=O)NO.[Na+]` (single isomer, unassigned) [Example 25, 5-methyl-2(R or S)-(2-naphthylmethyl)-3(R)-[2-phenyl-1(S)-(sulfomethylcarbamoyl)ethylcarbamoyl]hexanohydroxamic acid sodium salt] the “inhibitory effect of compound … relative ratio” value [1] was 0.33.
`CC(C)C[C@@H](C(=O)N[C@@H](Cc1ccccc1)C(=O)NCCS(=O)(=O)[O-])C(Cc1ccc2ccccc2c1)C(=O)NO.[Na+]` (single isomer, unassigned) [Example 26, 5-methyl-2(R or S)-(2-naphthylmethyl)-3(R)-[2-phenyl-1(S)-(2-sulfoethylcarbamoyl)ethylcarbamoyl]hexanohydroxamic acid sodium salt] was tested, and the “inhibitory effect of compound … relative ratio” value [1] was 0.54.

Reference: US6989401B2, “Sulfonic acid derivatives of hydroxamic acids and their use as medicinal products” (Mitsubishi Pharma Corporation, priority 2000, dated 2006)
